Results: PubChem BioAssay (NCI)
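Cells were grown in 96-well plates and exposed to each compound for 48 hours at five concentrations; endpoints were interpolated linearly between bracketing concentrations, or set to the highest concentration if not reached. GI50: concentration for 50% inhibition of growth. The concentration for full growth arrest is given as TGI.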

Key:
Experiment in all cases: NCI tumour cell line growth inhibition, 48 h
[1] = system: SF-295 CNS
[2] = system: SK-MEL-5 melanoma
[3] = system: IGROV1 ovarian
[4] = system: CAKI-1 renal
[5] = system: SF-268 CNS
[6] = system: T-47D breast
[7] = system: BT-549 breast
[8] = system: SW-620 colon
[9] = system: RXF 393 renal
[10] = system: HT29 colon
[11] = system: OVCAR-8 ovarian
[12] = system: UACC-62 melanoma
[13] = system: U251 CNS
[14] = system: ACHN renal
[15] = system: COLO 205 colon
[16] = system: SF-539 CNS
[17] = system: MDA-MB-468 breast
[18] = system: PC-3 prostate
[19] = system: LOX IMVI melanoma
[20] = system: M14 melanoma
[21] = system: OVCAR-4 ovarian
[22] = system: HL-60(TB) leukemia
[23] = system: UO-31 renal
[24] = system: A549 NSCLC
[25] = system: A498 renal
[26] = system: HCT-116 colon
[27] = system: OVCAR-5 ovarian
[28] = system: NCI-H226 lung
[29] = system: SN12C renal
[30] = system: NCI-H522 lung
[31] = system: HOP-62 NSCLC
[32] = system: UACC-257 melanoma
[33] = system: NCI/ADR-RES ovarian
[34] = system: HOP-92 NSCLC
[35] = system: OVCAR-3 ovarian
[36] = system: MCF7 breast
[37] = system: SK-OV-3 ovarian
[38] = system: SK-MEL-28 melanoma
[39] = system: HCT-15 colon
[40] = system: KM12 colon
[41] = system: SK-MEL-2 melanoma
[42] = system: 786-0 renal
[43] = system: SR leukemia
[44] = system: RPMI-8226 leukemia
[45] = system: HS 578T breast
[46] = system: SNB-75 CNS
[47] = system: NCI-H23 lung
[48] = system: HCC-2998 colon
[49] = system: NCI-H460 lung
[50] = system: CCRF-CEM leukemia
[51] = system: MALME-3M melanoma
[52] = system: MOLT-4 leukemia
[53] = system: MDA-MB-435
[54] = system: DU-145 prostate
[55] = system: TK-10 renal
[56] = system: K-562 leukemia
[57] = system: MDA-MB-231 breast
[58] = system: EKVX NSCLC
[59] = system: SNB-19 CNS

## N#Cc1c(NC(=O)c2ccc(C(F)(F)F)cc2C(F)(F)F)sc2c1CCC(=O)C2
[1]
  GI50: 1990 nM
  TGI: 6400 nM
[2]
  GI50: 804 nM
  TGI: 2080 nM
[3]
  GI50: 894 nM
  TGI: 5520 nM
[4]
  GI50: 610 nM
  TGI: 2120 nM
[5]
  GI50: 2820 nM
  TGI: 13200 nM
[6]
  GI50: 358 nM
  TGI: 2960 nM
[7]
  GI50: 309 nM
  TGI: 1110 nM
[8]
  GI50: 363 nM
  TGI: 1610 nM
[9]
  GI50: 293 nM
  TGI: 1270 nM
[10]
  GI50: 542 nM
  TGI: 2950 nM
[11]
  GI50: 569 nM
  TGI: 16500 nM
[12]
  GI50: 501 nM
  TGI: 1870 nM
[13]
  GI50: 800 nM
  TGI: 13200 nM
[14]
  GI50: 331 nM
  TGI: 1180 nM
[15]
  GI50: 1310 nM
  TGI: 2720 nM
[16]
  GI50: 316 nM
  TGI: 1150 nM
[17]
  GI50: 565 nM
  TGI: 1820 nM
[18]
  GI50: 249 nM
  TGI: 2360 nM
[19]
  GI50: 369 nM
  TGI: 2170 nM
[20]
  GI50: 901 nM
  TGI: 2840 nM
[21]
  GI50: 507 nM
  TGI: 1880 nM
[22]
  GI50: 235 nM
  TGI: 3270 nM
[23]
  GI50: 339 nM
  TGI: 1310 nM
[24]
  GI50: 3290 nM
  TGI: 30000 nM
[25]
  GI50: 13000 nM
  TGI: 28100 nM
[26]
  GI50: 345 nM
  TGI: 6640 nM
[27]
  GI50: 1040 nM
  TGI: 2670 nM
[28]
  GI50: 2240 nM
  TGI: 6810 nM
[29]
  GI50: 675 nM
  TGI: 11100 nM
[30]
  GI50: 169 nM
  TGI: 686 nM
[31]
  GI50: 3450 nM
  TGI: 14000 nM
[32]
  GI50: 1500 nM
  TGI: 3630 nM
[33]
  GI50: 623 nM
  TGI: 7140 nM
[34]
  GI50: 234 nM
  TGI: 770 nM
[35]
  GI50: 360 nM
  TGI: 1370 nM
[36]
  GI50: 442 nM
  TGI: 10800 nM
[37]
  GI50: 2660 nM
  TGI: 7230 nM
[38]
  GI50: 613 nM
  TGI: 1900 nM
[39]
  GI50: 335 nM
  TGI: 1390 nM
[40]
  GI50: 468 nM
  TGI: 2330 nM
[41]
  GI50: 2230 nM
  TGI: 4550 nM
[42]
  GI50: 442 nM
  TGI: 4080 nM
[43]
  GI50: 303 nM
  TGI: > 100000 nM
[44]
  GI50: 209 nM
  TGI: 4110 nM
[45]
  GI50: 999 nM
  TGI: 8550 nM
[46]
  GI50: 1460 nM
  TGI: 4900 nM
[47]
  GI50: 431 nM
  TGI: 2280 nM
[48]
  GI50: 1660 nM
  TGI: 5600 nM
[49]
  GI50: 3130 nM
  TGI: 10900 nM
[50]
  GI50: 308 nM
  TGI: 3200 nM
[51]
  GI50: 369 nM
  TGI: 1450 nM
[52]
  GI50: 386 nM
  TGI: 7210 nM
[53]
  GI50: 888 nM
  TGI: 2980 nM
[54]
  GI50: 3720 nM
  TGI: 14900 nM
[55]
  GI50: 367 nM
  TGI: 2190 nM
[56]
  GI50: 275 nM
  TGI: > 40200 nM
[57]
  GI50: 769 nM
  TGI: 2390 nM
[58]
  GI50: 1650 nM
  TGI: 7840 nM
[59]
  GI50: 3690 nM
  TGI: 14100 nM
